Experimental data as given in ChEMBL document CHEMBL1201862, “PubChem BioAssay data set” (2004).
Calls of active or inactive are those of the source.

Columns and labels:
[1] = molecular target: T1, Heat shock factor protein 1 (Mus musculus, UniProt P38532); experiment: HSF1 potentiators in luciferase reporter cells, confirmation, cell-based, NIH3T3, luminescence, dose retest (AID 435004); type: functional;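 note: stress induced by proteasome inhibitor MG132 added 30 min after compound; luciferase reporter driven by HSF1 response element in NIH3T3 cells; actives raise luminescence as potentiators of the MG132 stress response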
T1 sequence (P38532 whole entry): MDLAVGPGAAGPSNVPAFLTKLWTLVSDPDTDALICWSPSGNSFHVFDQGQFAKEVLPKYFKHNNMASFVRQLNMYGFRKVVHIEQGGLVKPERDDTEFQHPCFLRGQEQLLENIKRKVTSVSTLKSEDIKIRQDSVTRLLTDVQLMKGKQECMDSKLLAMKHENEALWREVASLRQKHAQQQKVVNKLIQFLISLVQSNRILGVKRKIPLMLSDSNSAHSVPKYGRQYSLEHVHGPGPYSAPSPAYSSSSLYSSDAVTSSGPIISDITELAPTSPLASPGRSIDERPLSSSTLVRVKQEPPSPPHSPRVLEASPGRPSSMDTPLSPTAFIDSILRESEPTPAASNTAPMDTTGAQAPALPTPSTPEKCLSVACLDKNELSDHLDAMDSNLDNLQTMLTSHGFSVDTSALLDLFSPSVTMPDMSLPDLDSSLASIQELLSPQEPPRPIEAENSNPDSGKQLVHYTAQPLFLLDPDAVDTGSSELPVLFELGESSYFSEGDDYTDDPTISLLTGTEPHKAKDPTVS

[2] = molecular target: T2, Caspase-6 (Homo sapiens, UniProt P55212); experiment: human caspase-6 inhibitors, dose response, biochemical, VEID-R110 fluorescence, cherry-pick (AID 720632)
T2 sequence (P55212 whole entry): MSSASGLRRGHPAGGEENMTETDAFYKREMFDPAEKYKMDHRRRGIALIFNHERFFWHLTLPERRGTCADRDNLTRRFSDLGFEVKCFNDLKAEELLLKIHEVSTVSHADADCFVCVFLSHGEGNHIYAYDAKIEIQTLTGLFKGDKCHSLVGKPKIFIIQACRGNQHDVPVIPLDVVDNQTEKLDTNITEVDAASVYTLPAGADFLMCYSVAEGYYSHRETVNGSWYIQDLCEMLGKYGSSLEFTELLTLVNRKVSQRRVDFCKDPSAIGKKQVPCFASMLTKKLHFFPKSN

[3] = molecular target: 5-hydroxytryptamine receptor 5A (Homo sapiens, UniProt P47898); experiment: Counterscreen for agonists of OPRM1-OPRD1 heterodimerization: luminescence-based cell-based high throughput dose response assay to identify agonists of 5-hydroxytryptamine (serotonin) 5A receptor (HTR5A). [Related pubchem assays (depositor defined):AID504326, AID504355, AID504692, AID504904, AID504905]; type: functional
[4] = molecular target: T3, Galanin receptor type 3 (Homo sapiens, UniProt O60755); experiment: Fluorescence-based cell-based primary high throughput dose response assay to identify antagonists of the Galanin Receptor 3 (GalR3).; type: functional
T3 sequence (O60755 whole entry): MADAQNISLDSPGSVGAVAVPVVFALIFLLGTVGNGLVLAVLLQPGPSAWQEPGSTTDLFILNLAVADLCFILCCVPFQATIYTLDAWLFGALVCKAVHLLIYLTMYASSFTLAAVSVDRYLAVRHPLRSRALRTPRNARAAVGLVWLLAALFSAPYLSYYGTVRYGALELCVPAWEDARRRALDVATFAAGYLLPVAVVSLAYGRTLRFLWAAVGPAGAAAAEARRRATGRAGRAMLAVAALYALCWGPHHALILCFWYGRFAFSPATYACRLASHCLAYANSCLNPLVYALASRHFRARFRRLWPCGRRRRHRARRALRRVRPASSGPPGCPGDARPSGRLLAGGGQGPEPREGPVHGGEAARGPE

[5] = molecular target: Mu-type opioid receptor (Homo sapiens, UniProt P35372); experiment: Counterscreen for agonists of heterodimerization of the mu 1 (OPRM1) and delta 1 (OPRD1) opioid receptors: Luminescence-based cell-based high throughput dose response assay to identify agonists of OPRM1 homodimerization.; type: functional;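 note: U2OS cells expressing OPRM1 and beta-arrestin as split beta-galactosidase partners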
[6] = cells; type: functional, cell-based; settings: HEK-CNG
[7] = molecular target: T4, Hexokinase HKDC1 (Homo sapiens, UniProt Q2TB90); experiment: HKDC1 hexokinase inhibitors, dose response, biochemical, W721R variant (AID 504729); type: functional
T4 sequence (Q2TB90 whole entry): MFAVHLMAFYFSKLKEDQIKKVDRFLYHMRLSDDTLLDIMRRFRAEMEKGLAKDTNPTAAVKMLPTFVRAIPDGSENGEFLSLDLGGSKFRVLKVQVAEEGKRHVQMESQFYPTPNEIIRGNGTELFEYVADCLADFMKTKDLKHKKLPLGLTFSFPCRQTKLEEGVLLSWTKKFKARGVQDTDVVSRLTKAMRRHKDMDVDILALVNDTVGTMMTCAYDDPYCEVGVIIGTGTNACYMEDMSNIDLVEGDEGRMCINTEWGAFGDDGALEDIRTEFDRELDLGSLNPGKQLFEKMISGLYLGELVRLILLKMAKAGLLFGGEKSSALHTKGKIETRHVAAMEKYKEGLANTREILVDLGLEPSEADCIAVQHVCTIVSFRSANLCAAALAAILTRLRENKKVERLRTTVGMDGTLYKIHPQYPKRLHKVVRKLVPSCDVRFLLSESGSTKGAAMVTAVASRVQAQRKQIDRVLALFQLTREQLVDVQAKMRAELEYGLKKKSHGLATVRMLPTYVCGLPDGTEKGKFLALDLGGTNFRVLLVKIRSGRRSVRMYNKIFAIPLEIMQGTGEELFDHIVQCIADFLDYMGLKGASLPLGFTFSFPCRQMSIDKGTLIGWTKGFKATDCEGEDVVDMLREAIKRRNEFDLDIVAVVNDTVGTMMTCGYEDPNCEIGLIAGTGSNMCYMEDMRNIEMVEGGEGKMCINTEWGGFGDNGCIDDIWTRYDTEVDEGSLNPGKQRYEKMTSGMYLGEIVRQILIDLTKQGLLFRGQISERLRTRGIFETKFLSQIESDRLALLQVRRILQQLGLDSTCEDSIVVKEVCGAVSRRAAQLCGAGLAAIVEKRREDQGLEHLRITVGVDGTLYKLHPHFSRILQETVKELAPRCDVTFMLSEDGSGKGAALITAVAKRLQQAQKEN

[8] = molecular target: Lysine-specific demethylase 4A (Homo sapiens, UniProt O75164); experiment: JMJD2A histone demethylase inhibitors, dose response, selectivity assay for GASC-1 inhibitor project, biochemical, DELFIA europium, cherry-picked samples (AID 488840)
[9] = molecular target: Photoreceptor-specific nuclear receptor (Homo sapiens, UniProt Q9Y5X4); type: functional;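 note: potency for compounds that break the NR2E3 corepressor complex and count as activators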
[10] = Intein inhibitors as potential Tuberculosis drugs, a cytotoxicity screen. [Related pubchem assays (depositor defined):AID2221, AID2223, AID434968, AID435010, AID449749, AID449750, AID489010]; type: functional
[11] = molecular target: Lysine-specific demethylase 4C (Homo sapiens, UniProt Q9H3R0); experiment: GASC-1 (JMJD2C) histone demethylase inhibitors, dose response, biochemical, DELFIA europium, cherry-picked samples (AID 488835); type: functional
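Throughout, for CC50: cells exposed to compound for 72 hours before luminescence readout.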

Sequence of Photoreceptor-specific nuclear receptor (Q9Y5X4 whole entry): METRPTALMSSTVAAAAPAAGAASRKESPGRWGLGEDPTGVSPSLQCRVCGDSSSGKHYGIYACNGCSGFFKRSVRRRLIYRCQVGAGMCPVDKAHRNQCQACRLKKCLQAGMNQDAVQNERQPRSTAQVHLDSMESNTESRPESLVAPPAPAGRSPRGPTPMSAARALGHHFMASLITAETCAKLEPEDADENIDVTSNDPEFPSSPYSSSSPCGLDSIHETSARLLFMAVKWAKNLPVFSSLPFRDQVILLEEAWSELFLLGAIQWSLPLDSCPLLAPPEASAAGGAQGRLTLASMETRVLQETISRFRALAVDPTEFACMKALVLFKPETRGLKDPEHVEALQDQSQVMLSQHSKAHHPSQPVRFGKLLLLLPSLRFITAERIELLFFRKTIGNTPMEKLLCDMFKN
Sequence of Lysine-specific demethylase 4C (Q9H3R0 whole entry): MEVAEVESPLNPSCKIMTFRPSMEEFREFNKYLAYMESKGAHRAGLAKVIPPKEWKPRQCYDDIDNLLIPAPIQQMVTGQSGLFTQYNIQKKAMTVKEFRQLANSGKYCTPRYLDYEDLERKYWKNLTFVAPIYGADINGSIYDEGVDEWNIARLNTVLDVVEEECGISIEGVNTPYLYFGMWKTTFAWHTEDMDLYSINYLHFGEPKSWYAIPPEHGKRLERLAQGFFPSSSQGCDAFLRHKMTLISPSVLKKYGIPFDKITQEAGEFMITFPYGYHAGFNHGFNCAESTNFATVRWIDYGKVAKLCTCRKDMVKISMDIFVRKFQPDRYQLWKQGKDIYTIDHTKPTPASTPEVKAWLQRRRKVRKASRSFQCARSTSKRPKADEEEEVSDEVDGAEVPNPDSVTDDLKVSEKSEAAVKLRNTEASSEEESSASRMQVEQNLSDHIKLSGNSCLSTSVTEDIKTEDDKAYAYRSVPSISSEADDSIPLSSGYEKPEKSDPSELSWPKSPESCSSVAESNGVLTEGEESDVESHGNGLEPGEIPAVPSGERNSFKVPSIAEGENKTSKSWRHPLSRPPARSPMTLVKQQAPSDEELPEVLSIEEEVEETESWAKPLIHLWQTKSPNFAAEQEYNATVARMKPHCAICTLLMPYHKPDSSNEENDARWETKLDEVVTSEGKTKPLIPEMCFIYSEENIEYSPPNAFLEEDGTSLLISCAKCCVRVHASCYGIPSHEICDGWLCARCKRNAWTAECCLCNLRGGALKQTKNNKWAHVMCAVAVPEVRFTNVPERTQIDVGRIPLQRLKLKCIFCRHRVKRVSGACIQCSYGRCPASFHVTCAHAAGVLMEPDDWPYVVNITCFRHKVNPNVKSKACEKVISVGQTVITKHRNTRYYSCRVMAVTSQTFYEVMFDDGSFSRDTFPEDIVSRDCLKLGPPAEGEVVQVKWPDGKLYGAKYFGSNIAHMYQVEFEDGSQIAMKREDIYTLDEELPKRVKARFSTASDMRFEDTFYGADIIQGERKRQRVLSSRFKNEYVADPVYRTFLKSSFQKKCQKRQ
Sequence of Lysine-specific demethylase 4A (O75164 whole entry): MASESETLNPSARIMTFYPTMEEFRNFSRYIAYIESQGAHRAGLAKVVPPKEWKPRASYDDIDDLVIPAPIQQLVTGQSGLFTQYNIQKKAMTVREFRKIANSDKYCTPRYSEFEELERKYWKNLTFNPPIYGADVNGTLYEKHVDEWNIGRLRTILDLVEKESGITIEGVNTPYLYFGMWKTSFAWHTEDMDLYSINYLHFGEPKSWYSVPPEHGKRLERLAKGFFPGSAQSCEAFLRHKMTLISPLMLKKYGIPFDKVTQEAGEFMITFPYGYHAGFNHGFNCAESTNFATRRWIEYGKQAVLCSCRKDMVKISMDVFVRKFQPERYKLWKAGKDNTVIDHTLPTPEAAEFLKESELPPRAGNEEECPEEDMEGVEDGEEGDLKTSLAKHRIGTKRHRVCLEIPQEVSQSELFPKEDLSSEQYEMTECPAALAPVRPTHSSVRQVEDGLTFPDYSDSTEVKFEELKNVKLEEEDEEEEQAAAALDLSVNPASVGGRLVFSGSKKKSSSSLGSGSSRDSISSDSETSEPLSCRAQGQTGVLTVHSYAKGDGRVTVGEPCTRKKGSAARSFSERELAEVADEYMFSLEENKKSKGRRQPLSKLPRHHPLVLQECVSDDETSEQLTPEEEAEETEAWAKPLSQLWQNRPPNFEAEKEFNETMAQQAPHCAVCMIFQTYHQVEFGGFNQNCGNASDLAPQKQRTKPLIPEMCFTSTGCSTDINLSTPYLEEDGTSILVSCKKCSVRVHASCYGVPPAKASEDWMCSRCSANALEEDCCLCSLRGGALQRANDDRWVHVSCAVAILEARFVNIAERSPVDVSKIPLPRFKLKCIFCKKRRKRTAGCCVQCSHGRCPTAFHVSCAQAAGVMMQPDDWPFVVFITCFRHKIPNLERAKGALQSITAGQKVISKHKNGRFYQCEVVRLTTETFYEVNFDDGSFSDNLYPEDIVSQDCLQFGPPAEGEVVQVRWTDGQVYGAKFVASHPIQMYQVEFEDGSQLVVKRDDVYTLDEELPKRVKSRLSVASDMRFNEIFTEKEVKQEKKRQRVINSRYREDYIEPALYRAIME
Sequence of 5-hydroxytryptamine receptor 5A (P47898 whole entry): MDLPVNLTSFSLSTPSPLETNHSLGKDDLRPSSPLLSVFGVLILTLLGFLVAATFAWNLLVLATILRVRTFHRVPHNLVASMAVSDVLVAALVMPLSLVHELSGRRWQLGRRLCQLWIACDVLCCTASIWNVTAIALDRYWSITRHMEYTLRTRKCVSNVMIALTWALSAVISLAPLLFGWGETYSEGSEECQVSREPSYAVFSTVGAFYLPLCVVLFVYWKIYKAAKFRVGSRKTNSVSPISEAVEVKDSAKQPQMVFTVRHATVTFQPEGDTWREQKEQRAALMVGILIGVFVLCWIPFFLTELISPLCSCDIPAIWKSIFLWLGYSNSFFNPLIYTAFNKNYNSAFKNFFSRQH
Sequence of Mu-type opioid receptor (P35372 whole entry): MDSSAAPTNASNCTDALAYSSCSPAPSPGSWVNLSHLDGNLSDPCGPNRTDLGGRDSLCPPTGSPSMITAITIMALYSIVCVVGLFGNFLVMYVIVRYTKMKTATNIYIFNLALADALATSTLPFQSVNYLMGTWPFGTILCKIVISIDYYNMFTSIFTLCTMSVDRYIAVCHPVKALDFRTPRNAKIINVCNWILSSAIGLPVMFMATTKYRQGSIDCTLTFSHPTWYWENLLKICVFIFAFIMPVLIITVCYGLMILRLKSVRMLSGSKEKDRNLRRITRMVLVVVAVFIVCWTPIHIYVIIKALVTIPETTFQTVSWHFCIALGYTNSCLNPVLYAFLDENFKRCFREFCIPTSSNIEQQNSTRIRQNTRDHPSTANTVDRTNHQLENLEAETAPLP

Oc1nc(Nc2ccccc2Cl)cc2ccccc12
EC50 [1]: 136 µM (active) | AC50 [2]: 3.75 µM (active)

O=C1C=C(c2c(O)ccc3ccccc23)c2ccccc2C1=O
EC50 [3]: > 92.4 µM (inactive) | IC50 [4]: > 3.32 µM (active) | EC50 [5]: > 92.4 µM (inactive) | EC50 [6]: > 29.9 µM (inactive) | IC50 [7]: 2.47 µM (active)

Cc1nc2c(=O)n(C)c(=O)nc-2n(C)n1
AC50 [8]: 1.78 µM (active) | IC50 [9]: > 39.8 µM (not active) | CC50 [10]: 7.94 µM (active) | AC50 [11]: 0.425 µM (active)
